Columns and labels:
[1] = target: T1, Arachidonate 5-lipoxygenase-activating protein (Homo sapiens) (UniProt P20292); test: Inhibition of FLAP in A23187-stimulated human neutrophils assessed as remaining enzyme activity by measuring 5-LO product formation at 0.1 uM preincubated for 15 mins followed by A23187 and arachidonic acid addition and measured after 10 mins by UV based RP-HPLC analysis (reference value: 100%)
T1 sequence (whole entry): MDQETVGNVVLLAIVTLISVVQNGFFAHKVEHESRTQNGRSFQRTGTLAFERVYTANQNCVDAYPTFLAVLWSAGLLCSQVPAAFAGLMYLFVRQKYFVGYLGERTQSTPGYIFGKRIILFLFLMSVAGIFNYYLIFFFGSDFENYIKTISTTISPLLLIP

[2] = target: T1, Arachidonate 5-lipoxygenase-activating protein (Homo sapiens); test: Inhibition of FLAP in A23187-stimulated human neutrophils assessed as remaining enzyme activity by measuring 5-LO product formation at 1 uM preincubated for 15 mins followed by A23187 and arachidonic acid addition and measured after 10 mins by UV based RP-HPLC analysis (reference value: 100%)
[3] = target: T2, Arachidonate 5-lipoxygenase-activating protein (Homo sapiens, UniProt P20292); test: Inhibition of FLAP in A23187-stimulated human neutrophils assessed as reduction in 5-LO product formation preincubated for 15 mins followed by A23187 and arachidonic acid addition and measured after 10 mins by UV based RP-HPLC analysis
T2 sequence (P20292 whole entry): T1 sequence (whole entry)

[4] = target: T2, Arachidonate 5-lipoxygenase-activating protein; test: Inhibition of FLAP in A23187-stimulated human monocytes assessed as reduction in 5-LO product formation preincubated for 15 mins followed by A23187 and arachidonic acid addition and measured after 10 mins by UV based RP-HPLC analysis; assay type: cell-based
[5] = target: T3, Polyunsaturated fatty acid 5-lipoxygenase (Homo sapiens, UniProt P09917); test: Inhibition of 5-LO in A23187-stimulated human neutrophils assessed as reduction in 5-LO product formation preincubated for 15 mins followed by A23187 and 10 uM arachidonic acid addition and measured after 10 mins by UV based RP-HPLC analysis
T3 sequence (P09917 whole entry): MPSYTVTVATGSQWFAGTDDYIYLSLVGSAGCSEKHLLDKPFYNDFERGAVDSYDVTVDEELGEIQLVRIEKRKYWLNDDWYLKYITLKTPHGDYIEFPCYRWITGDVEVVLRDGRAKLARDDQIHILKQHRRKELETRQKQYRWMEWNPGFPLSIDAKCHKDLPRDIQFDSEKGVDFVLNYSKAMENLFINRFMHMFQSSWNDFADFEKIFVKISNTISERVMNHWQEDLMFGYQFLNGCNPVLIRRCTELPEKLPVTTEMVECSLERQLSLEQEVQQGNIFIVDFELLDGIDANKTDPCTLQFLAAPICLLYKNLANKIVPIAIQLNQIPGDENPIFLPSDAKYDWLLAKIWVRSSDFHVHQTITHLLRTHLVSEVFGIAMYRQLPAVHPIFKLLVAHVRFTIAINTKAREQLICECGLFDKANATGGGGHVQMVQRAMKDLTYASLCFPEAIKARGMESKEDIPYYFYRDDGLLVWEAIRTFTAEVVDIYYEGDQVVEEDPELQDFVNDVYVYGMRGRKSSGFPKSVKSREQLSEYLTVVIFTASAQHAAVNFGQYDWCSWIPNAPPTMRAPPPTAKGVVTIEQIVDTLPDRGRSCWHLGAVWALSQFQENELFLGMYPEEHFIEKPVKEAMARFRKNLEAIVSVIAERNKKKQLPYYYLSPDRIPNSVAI

Leukotriene C4 synthase = target: T4, Leukotriene C4 synthase (Homo sapiens, UniProt Q16873); test: Inhibition of LTC4 synthase in LPS/fMLP-stimulated human monocytes assessed as decrease in cys-LT formation pre-incubated with LPS for 30 mins and later stimulated with fMLP for 10 mins by ELISA; assay type: cell-based
T4 sequence (Q16873 whole entry): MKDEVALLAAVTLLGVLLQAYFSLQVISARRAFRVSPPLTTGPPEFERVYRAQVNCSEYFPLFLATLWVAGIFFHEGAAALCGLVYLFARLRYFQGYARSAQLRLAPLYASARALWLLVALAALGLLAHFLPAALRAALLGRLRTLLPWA

[6] = target: T5, Polyunsaturated fatty acid 5-lipoxygenase (Homo sapiens) (UniProt P09917); test: Inhibition of recombinant human 5-LO expressed in Escherichia coli BL21 at 10 uM incubated for 15 mins prior to prewarming for 30 secs followed by CaCl2+ and arachidonic acid addition and measured after 10 mins by RP-HPLC analysis
T5 sequence (whole entry): T3 sequence (P09917 whole entry)

[7] = target: T6, Prostaglandin E synthase (Homo sapiens) (UniProt O14684); test: Inhibition of mPGES1 in IL-1beta-stimulated human A549 cell microsomal fractions assessed as reduction in PGE2 production at 3 uM preincubated for 15 mins followed by PGH2 substrate addition and measured after 1 min by RP-HPLC analysis relative to control
T6 sequence (whole entry): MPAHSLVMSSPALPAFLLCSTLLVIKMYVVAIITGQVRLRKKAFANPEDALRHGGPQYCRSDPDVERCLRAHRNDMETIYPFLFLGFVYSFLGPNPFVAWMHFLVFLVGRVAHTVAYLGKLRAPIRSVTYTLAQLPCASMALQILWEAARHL

`CC(C)Cc1ccc(C(C)c2nc3cc(CCC(=O)O)ccc3n2Cc2ccccc2Cl)cc1` (stereo not drawn) was tested, and the Activity [1] was 32.1%, the Activity [2] was 0% and the IC50 [3] was 0.05 µM. For the same compound, the IC50 [4] was 0.07 µM, the IC50 [5] was 0.06 µM and the IC50 (Leukotriene C4 synthase) was 0.03 µM. The inhibition [6] was 26% and the inhibition [7] was greater than 50%.

From ChEMBL document CHEMBL4229367, “Identification of multi-target inhibitors of leukotriene and prostaglandin E2 biosynthesis by structural tuning of the FLAP inhibitor BRP-7” (Eur J Med Chem, 2018)
